Test [1] concerns the target T1, Human PD-L1/PD-1 (Homo sapiens, UniProt Q9NZQ7).
T1 construct: made in house; host or cells: HEK293T
The test is described as follows: HTRF PD-1-Ig/PD-L1-His binding assay (human PD-L1). As to conditions: cluster symbol; read-out: HTRF IC50 cluster. The method, boiled down:
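Soluble PD-1-Ig binding to PD-L1-His measured by HTRF in dPBS with 0.1% BSA and 0.05% Tween-20. Detection used europium cryptate anti-Ig antibody (1 nM final) and APC anti-His antibody (20 nM final) added on top of the binding reaction.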

The target in test [2] is T2, LK35.2-hPD-L1 cells / PE-labeled PD-1-Ig (Homo sapiens, UniProt Q9NZQ7).
T2 construct: expressed in transfected cells; host or cells: LK35.2 mouse B cell line
The test is described as follows: LK35.2-hPD-L1 cell binding high-content screening assay. Type of test: cell-based. As to conditions: cluster symbol; cell line of CBA not given (LK35.2-hPD-L1 or 293T-hPD-L1); read-out: CBA IC50 cluster. The method, boiled down: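 Compound effect on PD-1/PD-L1 binding is measured by imaging cell-associated phycoerythrin signal. Human PD-1-Ig (PE on Ig tag, 1 nM final) is applied with compound to a murine B cell line overexpressing human PD-L1 for 1 h at 37 °C in serum-containing RPMI.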

Molecules are shown by their SMILES. Positions of bridges follow the written chain, without caps; N, C: chain ends. Non-standard residues stand in square brackets, D forms with d. Residues, ends and D or L forms follow the SMILES beside them. ξ: configuration not given here. *: point of attachment. Pro(3S-OH) = O=C(O)[C@H]1NCC[C@@H]1O; Bta = N[C@@H](Cc1csc2ccccc12)C(=O)O; ξPro(4R-OH) = O=C(O)C1C[C@@H](O)CN1; Hyp = O=C(O)[C@@H]1C[C@@H](O)CN1; NMeNle = CCCC[C@H](NC)C(=O)O; Pip = O=C(O)[C@@H]1CCCCN1; NMeA = CN[C@@H](C)C(=O)O; Orn = NCCC[C@H](N)C(=O)O; Dab = NCC[C@H](N)C(=O)O; Dap = NC[C@H](N)C(=O)O; Alloc = C=CCOC(=O)* Where only a bound is given, the exact number is not on record here.

T2 sequence (Q9NZQ7 19-290): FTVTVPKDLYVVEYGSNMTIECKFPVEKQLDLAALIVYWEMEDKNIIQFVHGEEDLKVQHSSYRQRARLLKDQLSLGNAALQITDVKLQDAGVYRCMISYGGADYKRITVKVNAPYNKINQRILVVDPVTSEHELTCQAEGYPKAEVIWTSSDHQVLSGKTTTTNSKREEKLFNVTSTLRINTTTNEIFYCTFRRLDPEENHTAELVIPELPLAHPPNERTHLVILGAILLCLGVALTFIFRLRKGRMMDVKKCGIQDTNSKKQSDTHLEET
T1 sequence (Q9NZQ7 with tags, fused parts or gaps): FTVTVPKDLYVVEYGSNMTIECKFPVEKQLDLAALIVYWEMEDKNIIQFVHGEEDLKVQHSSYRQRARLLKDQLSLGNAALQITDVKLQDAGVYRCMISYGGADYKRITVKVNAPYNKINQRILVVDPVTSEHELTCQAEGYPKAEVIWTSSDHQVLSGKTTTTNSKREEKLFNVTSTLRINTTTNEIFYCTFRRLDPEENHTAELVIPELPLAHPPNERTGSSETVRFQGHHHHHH

`CCCC[C@H]1C(=O)N(C)[C@@H](CCCC)C(=O)N[C@@H](CCCNC(=N)N)C(=O)N[C@H](C(=O)NCC(N)=O)CSCC(=O)N[C@@H](Cc2ccc(O)cc2)C(=O)N2CC[C@H](O)[C@H]2C(=O)N[C@@H](CC(N)=O)C(=O)N2CCC[C@H]2C(=O)N[C@@H](Cc2cnc[nH]2)C(=O)N[C@@H](CC(C)C)C(=O)N2CCC[C@H]2C(=O)N[C@@H](Cc2c[nH]c3ccccc23)C(=O)N[C@@H](CO)C(=O)N[C@@H](Cc2csc3ccccc23)C(=O)N1C` [Example 1227] ({CH2CO}-Y[Pro(3S-OH)]NPHLPWS[Bta][NMeNle][NMeNle]RCG-NH2; thioether N-14): the IC50 in test [1] was over 30.5 nM; in test [2] it was over 74.3 nM.
In the same order, the values of `CCCC[C@H]1C(=O)N(C)[C@@H](CCCC)C(=O)N[C@@H](CN)C(=O)N[C@H](C(=O)NCC(N)=O)CSCC(=O)N[C@@H](Cc2ccc(O)cc2)C(=O)N2CCC[C@H]2C(=O)N[C@@H](CC(=O)O)C(=O)N2CCC[C@H]2C(=O)N[C@@H](CN)C(=O)N[C@@H](CCC(N)=O)C(=O)N2C[C@H](O)CC2C(=O)N[C@@H](Cc2c[nH]c3ccccc23)C(=O)N[C@@H](CCN)C(=O)N[C@@H](Cc2csc3ccccc23)C(=O)N1C` (stereo partly drawn) [Example 1228] ({CH2CO}-YPDP[Dap]Q[ξPro(4R-OH)]W[Dab][Bta][NMeNle][NMeNle][Dap]CG-NH2; thioether N-14) are 6.76 to 30.3 nM and 4.78 to 72.9 nM.
Regarding `CCCC[C@H]1C(=O)N(C)[C@@H](CCCC)C(=O)N[C@@H](C)C(=O)N[C@H](C(=O)NCC(=O)O)CSCC(=O)N[C@@H](Cc2ccc(O)cc2)C(=O)N(C)[C@@H](C)C(=O)N[C@@H](CC(N)=O)C(=O)N2CCC[C@H]2C(=O)N[C@@H](Cc2cnc[nH]2)C(=O)N[C@@H](CC(C)C)C(=O)N[C@@H](CCN)C(=O)N[C@@H](Cc2c[nH]c3ccccc23)C(=O)N[C@@H](CO)C(=O)N[C@@H](Cc2c[nH]c3ccccc23)C(=O)N1C` [Example 1229], the results for the IC50 in test [1] and in test [2] were 6.76 to 30.3 nM and 4.78 to 72.9 nM, respectively.
As for `C=CCOC(=O)NCCC[C@@H]1NC(=O)[C@H](CCCC)N(C)C(=O)[C@H](CCCC)N(C)C(=O)[C@H](Cc2csc3ccccc23)NC(=O)[C@H](CCNC(=O)OCC=C)NC(=O)[C@H](Cc2c[nH]c3ccccc23)NC(=O)[C@@H]2C[C@@H](O)CN2C(=O)[C@H](CCC(=O)O)NC(=O)[C@H](Cc2cnc[nH]2)NC(=O)[C@@H]2CCCN2C(=O)[C@H](CCCN)NC(=O)[C@H](C)N(C)C(=O)[C@H](Cc2ccc(O)cc2)NC(=O)CSC[C@@H](C(=O)NCC(N)=O)NC1=O` [Example 1230] ({CH2CO}-Y[NMeA][Orn]PHE[Hyp]W[Dab](Alloc)[Bta][NMeNle][NMeNle][Orn](Alloc)CG-NH2; thioether N-14), the IC50 is over 30.5 nM in test [1] and over 74.3 nM in test [2].
Turning to `CCCC[C@H]1C(=O)N(C)[C@@H](CCCC)C(=O)N[C@@H](C)C(=O)N[C@H](C(N)=O)CSCC(=O)N[C@@H](Cc2ccc(O)cc2)C(=O)N(C)[C@@H](C)C(=O)N[C@@H](CC(=O)O)C(=O)N2CCC[C@H]2C(=O)N[C@@H](Cc2cnc[nH]2)C(=O)N[C@@H](CCCN)C(=O)N2C[C@H](O)C[C@H]2C(=O)N[C@@H](Cc2c[nH]c3ccccc23)C(=O)N[C@@H](CO)C(=O)N[C@@H](Cc2c[nH]c3ccccc23)C(=O)N1C` [Example 1231] ({CH2CO}-Y[NMeA]DPH[Orn][Hyp]WSW[NMeNle][NMeNle]AC-NH2; thioether N-14), the IC50 in test [1] is 0.385 to 6.74 nM; in test [2], 0.158 to 4.71 nM.
For `CCCC[C@H]1C(=O)N(C)[C@@H](CCCC)C(=O)N[C@@H](CCCNC(=N)N)C(=O)N[C@H](C(=O)NCC(N)=O)CSCC(=O)N[C@@H](Cc2ccc(O)cc2)C(=O)N2CCCC[C@H]2C(=O)N[C@@H](CC(=O)O)C(=O)N2CCC[C@H]2C(=O)N[C@@H](CN)C(=O)N[C@@H](CC(C)C)C(=O)N2C[C@H](O)C[C@H]2C(=O)N[C@@H](Cc2c[nH]c3ccccc23)C(=O)N[C@@H](CO)C(=O)N[C@@H](Cc2c[nH]c3ccccc23)C(=O)N1C` [Example 1233] ({CH2CO}-Y[Pip]DP[Dap]L[Hyp]WSW[NMeNle][NMeNle]RCG-NH2; thioether N-14), the IC50 in test [1] was 6.76 to 30.3 nM; in test [2], 0.158 to 4.71 nM.
On to `CCCC[C@H]1C(=O)N(C)[C@@H](CCCC)C(=O)N[C@@H](CCCN)C(=O)N[C@H](C(=O)NCC(N)=O)CSCC(=O)N[C@@H](Cc2ccc(O)cc2)C(=O)N2CCCC[C@H]2C(=O)N[C@@H](CC(N)=O)C(=O)N2CCC[C@H]2C(=O)N[C@@H](Cc2cnc[nH]2)C(=O)N[C@@H](CCC(=O)O)C(=O)N2C[C@H](O)C[C@H]2C(=O)N[C@@H](Cc2c[nH]c3ccccc23)C(=O)N[C@@H](CO)C(=O)N[C@@H](Cc2c[nH]c3ccccc23)C(=O)N1C` [Example 1234] ({CH2CO}-Y[Pip]NPHE[Hyp]WSW[NMeNle][NMeNle][Orn]CG-NH2; thioether N-14), for which the values for the IC50 in test [1] and in test [2] were 6.76 to 30.3 nM and 0.158 to 4.71 nM, respectively.
For the compound `CCCC[C@H]1C(=O)N(C)[C@@H](CCCC)C(=O)N[C@@H](CCCN)C(=O)N[C@H](C(=O)NCC(N)=O)CSCC(=O)N[C@@H](Cc2ccc(O)cc2)C(=O)N2CCCC[C@H]2C(=O)N[C@@H](CC(=O)O)C(=O)N2CCC[C@H]2C(=O)N[C@@H](CN)C(=O)N[C@@H](CC(C)C)C(=O)N2C[C@H](O)C[C@H]2C(=O)N[C@@H](Cc2c[nH]c3ccccc23)C(=O)N[C@@H](CO)C(=O)N[C@@H](Cc2c[nH]c3ccccc23)C(=O)N1C` [Example 1235] ({CH2CO}-Y[Pip]DP[Dap]L[Hyp]WSW[NMeNle][NMeNle][Orn]CG-NH2; thioether N-14), the values for the half-inhibitory concentration (IC50) in test [1] and in test [2] were 6.76 to 30.3 nM and 0.158 to 4.71 nM, respectively.
For `CCCC[C@H]1C(=O)N(C)[C@@H](CCCC)C(=O)N[C@@H](CCCNC(=N)N)C(=O)N[C@H](C(=O)NCC(N)=O)CSCC(=O)N[C@@H](Cc2ccc(O)cc2)C(=O)N2CCCC[C@H]2C(=O)N[C@@H](CC(N)=O)C(=O)N2CCC[C@H]2C(=O)N[C@@H](CN)C(=O)N[C@@H](CC(C)C)C(=O)N2C[C@H](O)C[C@H]2C(=O)N[C@@H](Cc2c[nH]c3ccccc23)C(=O)N[C@@H](CO)C(=O)N[C@@H](Cc2c[nH]c3ccccc23)C(=O)N1C` [Example 1236] ({CH2CO}-Y[Pip]NP[Dap]L[Hyp]WSW[NMeNle][NMeNle]RCG-NH2; thioether N-14), the IC50 in test [1] was 6.76 to 30.3 nM; in test [2], 0.158 to 4.71 nM.
On to `CCCC[C@H]1C(=O)N(C)[C@@H](CCCC)C(=O)N[C@@H](C)C(=O)N[C@H](C(=O)NCC(=O)O)CSCC(=O)N[C@@H](Cc2ccc(O)cc2)C(=O)N(C)[C@@H](C)C(=O)N[C@@H](CC(N)=O)C(=O)N2CCC[C@H]2C(=O)N[C@@H](Cc2cnc[nH]2)C(=O)N[C@@H](CC(C)C)C(=O)N[C@@H](CCCCN)C(=O)N[C@@H](Cc2c[nH]c3ccccc23)C(=O)N[C@@H](CO)C(=O)N[C@@H](Cc2c[nH]c3ccccc23)C(=O)N1C` [Example 1238], for which the IC50 in test [1] was in the range of 6.76 to 30.3 nM; in test [2], 4.78 to 72.9 nM.
Take `CCCC[C@H]1C(=O)N(C)[C@@H](CCCC)C(=O)N[C@@H](C)C(=O)N[C@H](C(N)=O)CSCC(=O)N[C@@H](Cc2ccc(O)cc2)C(=O)N(C)[C@@H](C)C(=O)N[C@@H](CCC(=O)O)C(=O)N2CCC[C@H]2C(=O)N[C@@H](Cc2cnc[nH]2)C(=O)N[C@@H](CCN)C(=O)N2C[C@H](O)C[C@H]2C(=O)N[C@@H](Cc2c[nH]c3ccccc23)C(=O)N[C@@H](CO)C(=O)N[C@@H](Cc2c[nH]c3ccccc23)C(=O)N1C` [Example 1239] ({CH2CO}-Y[NMeA]EPH[Dab][Hyp]WSW[NMeNle][NMeNle]AC-NH2; thioether N-14): the results for the IC50 in test [1] and in test [2] were 6.76 to 30.3 nM and 4.78 to 72.9 nM, respectively.
As for `CCCC[C@H]1C(=O)N(C)CC(=O)N[C@@H](CC(=O)O)C(=O)N[C@@H](C(C)C)C(=O)N(C)[C@@H](Cc2ccccc2)C(=O)N[C@@H](Cc2ccc(O)cc2)C(=O)N(C)CC(=O)N[C@@H](Cc2c[nH]c3ccccc23)C(=O)N[C@@H](Cc2ccc(O)cc2)C(=O)N[C@@H](CC(C)C)C(=O)N[C@H](C(=O)NCC(N)=O)CSCC(=O)N(C)[C@@H](Cc2ccccc2)C(=O)N1C` [Example 3052] (HELM PEPTIDE1{[O=C(C[*:3])[*:2]].[meF].[CCCC[C@@H](C(=O)[*:2])N(C)[*:1]].[Sar].D.V.[meF].Y.[Sar].W.Y.L.C.G.[am]}$PEPTIDE1,PEPTIDE1,1:R3-13:R3$$$V2.0), the figures for the IC50 in test [1] and in test [2] were over 30.5 nM and over 74.3 nM, respectively.
With `CCCC[C@H]1C(=O)N(C)CC(=O)N[C@@H](CC(=O)O)C(=O)N[C@@H](C(C)C)C(=O)N(C)[C@@H](Cc2ccccc2)C(=O)N[C@@H](Cc2ccc(O)cc2)C(=O)N(C)CC(=O)N[C@@H](Cc2c[nH]c3ccccc23)C(=O)N[C@@H](Cc2ccc(O)cc2)C(=O)N[C@@H](CC(C)C)C(=O)N[C@H](C(=O)NCC(N)=O)CSCC(=O)N[C@@H](Cc2ccccc2)C(=O)N1C` [Example 3053] (HELM PEPTIDE1{[O=C(C[*:3])[*:2]].F.[CCCC[C@@H](C(=O)[*:2])N(C)[*:1]].[Sar].D.V.[meF].Y.[Sar].W.Y.L.C.G.[am]}$PEPTIDE1,PEPTIDE1,1:R3-13:R3$$$V2.0), the results for the IC50 in test [1] and in test [2] were over 30.5 nM and over 74.3 nM, respectively.
In the case of `CCCC[C@H]1C(=O)N(C)CC(=O)N[C@@H](CC(=O)O)C(=O)N[C@@H](C(C)C)C(=O)N(C)[C@@H](Cc2ccccc2)C(=O)N[C@@H](Cc2ccc(O)cc2)C(=O)N(C)CC(=O)N[C@@H](Cc2c[nH]c3ccccc23)C(=O)N[C@@H](Cc2ccc(O)cc2)C(=O)N[C@H](C(=O)NCC(N)=O)CSCC(=O)N[C@@H](Cc2ccccc2)C(=O)N(C)[C@@H](Cc2ccccc2)C(=O)N1C` [Example 3054] (HELM PEPTIDE1{[O=C(C[*:3])[*:2]].F.[meF].[CCCC[C@@H](C(=O)[*:2])N(C)[*:1]].[Sar].D.V.[meF].Y.[Sar].W.Y.C.G.[am]}$PEPTIDE1,PEPTIDE1,1:R3-13:R3$$$V2.0), the IC50 in test [1] is over 30.5 nM; in test [2] it was over 74.3 nM.

These data come from patent publication US9850283B2, “Macrocyclic inhibitors of the PD-1/PD-L1 and CD80(B7-1)/PD-L1 protein/protein interactions” (BRISTOL-MYERS SQUIBB COMPANY, priority 2013, dated 2017).
